Measurements taken from US8921372B2, “Inhibitors of hepatitis C virus” (Theravance Biopharma R&D IP, LLC, priority 2010, dated 2014).
Like-named read-outs stand apart in the source and are kept apart here.

Key:
[1] = system: HCV genotype 1a replicon cell line (APC89; Huh7.5 cell background); test: HCV Genotype 1a Replicon Assay (NS3-specific protease activity readout); assay type: cell-based; details: Hepatitis C virus
Outline: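 EC50 values came from a 4-parameter robust fit of fluorescence (ex 340, em 509 nm) produced by NS3-specific protease in lysates, assayed with 15 μM FRET substrate for 20 min at 37° C, after 48 or 72 hours of compound exposure (0.5% DMSO) of Huh7.5-derived APC89 genotype 1a replicon cells.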

[2] = system: HCV genotype 1b replicon cell line (APC144; Huh7 cell background); test: HCV Genotype 1b Replicon Assay (Renilla luciferase readout); assay type: cell-based; details: Hepatitis C virus, Huh-7; read-out: Genotype 1b (pEC50 class, HCV genotype 1b replicon assay) (converted)
Outline: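 Reported as pEC50 derived from a 4-parameter fit of Renilla luciferase activity against concentration. Replicon cells (APC144, Huh7 background) were exposed to compound for 48 h in G418-free medium with final 0.5% DMSO, after seeding at 10,000 cells/well and 4 h adherence.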

[3] = 72 hour incubation, read-out: Genotype 1a (pEC50 class, HCV genotype 1a replicon assay) (converted)

Molecule COC(=O)N[C@H](C(=O)N1CCC[C@H]1c1nc(-c2ccc(-c3ccc(C(=O)Nc4ccc(N5CCN(C(=O)C6CC6)CC5)cc4)cc3)cc2)c[nH]1)C(C)C [Example 7, {(S)-1-[(S)-2-(4-{4′-[4-(4-cyclopropanecarbonyl-piperazin-1-yl)-phenylcarbamoyl]-biphenyl-4-yl}-1H-imidazol-2-yl)-pyrrolidine-1-carbonyl]-2-methyl-propyl}-carbamic acid methyl ester] has an EC50 ([1]; compounds incubated for 48 hours, read-out: Genotype 1a (pEC50 class, HCV genotype 1a replicon assay), * results (converted)) of 1 to 10 nM and an EC50 [2] of less than 0.1 nM.

Work on CNC(=O)N1CCN(c2ccc(C(=O)Nc3ccc(-c4ccc(-c5c[nH]c([C@@H]6CCCN6C(=O)[C@@H](NC(=O)OC)C(C)C)n5)cc4)c(C)c3)cn2)[C@H](C)C1 [Example 18] yielded an EC50 [1, 3] of 0.1 to 1 nM and an EC50 [2] of less than 0.1 nM.

COC(=O)N[C@H](C(=O)N1CCC[C@H]1c1nc(-c2ccc(-c3cc(Cl)c(NC(=O)c4ccc(N5CCN(C(=O)[C@]6(C)CCCN6C(=O)[C@@H](NC(=O)OC)C(C)C)C[C@H]5C)nc4)cc3C(F)(F)F)cc2)c[nH]1)C(C)C [Example 62] gave an EC50 [1, 3] of less than 0.1 nM and an EC50 [2] of less than 0.1 nM.

COC(=O)N[C@H](C(=O)N1CCC[C@H]1c1nc(-c2ccc(-c3ccc(NC(=O)c4ccc(N5CCN(C(=O)C6CC6)C[C@H]5C)nc4)cc3C)cc2)c[nH]1)C(C)C [Example 17] was tested, and the EC50 [1, 3] was 0.1 to 1 nM and the EC50 [2] was less than 0.1 nM.

In the case of COC(=O)N[C@H](C(=O)N1CCC[C@H]1c1nc(-c2ccc(-c3cc(F)c(NC(=O)c4ccc(N5CCN(C(=O)[C@]6(C)CCCN6C(=O)NC(C)C)C[C@H]5C)nc4)cc3OC(F)(F)F)cc2)c[nH]1)C(C)C [Example 27-43], the EC50 [1, 3] was less than 0.1 nM and the EC50 [2] was less than 0.1 nM.

Work on COC(=O)N[C@H](C(=O)N1CCC[C@H]1c1nc(-c2ccc(-c3cc(Cl)c(NC(=O)c4ccc(N5CCN(C(=O)[C@H]6CC6(C)C)C[C@H]5C)nc4)cc3C(F)(F)F)cc2)c[nH]1)C(C)C [Example 61, [(S)-1-((S)-2-{4-[5′-Chloro-4′-({6-[(R)-4-((S)-2,2-dimethyl-cyclopropanecarbonyl)-2-methyl-piperazin-1-yl]-pyridine-3-carbonyl}-amino)-2′-trifluoromethyl-biphenyl-4-yl]-1H-imidazol-2-yl}-pyrrolidine-1-carbonyl)-2-methyl-propyl]-carbamic acid methyl ester] yielded an EC50 [1, 3] of less than 0.1 nM and an EC50 [2] of less than 0.1 nM.

With COC(=O)N[C@H](C(=O)N1CCC[C@H]1c1nc(-c2ccc(-c3c(F)cc(NC(=O)c4ccc(N5CCN(C(=O)[C@H]6CC6(C)C)C[C@H]5C)nc4)cc3F)cc2)c[nH]1)C(C)C [Example 41, [(S)-1-((S)-2-{5-[4′-({6-[(R)-4-((S)-2,2-Dimethyl-cyclopropanecarbonyl)-2-methyl-piperazin-1-yl]-pyridine-3-carbonyl}-amino)-2′,6′-difluoro-biphenyl-4-yl]-1H-imidazol-2-yl}-pyrrolidine-1-carbonyl)-2-methyl-propyl]-carbamic acid methyl ester] the EC50 [1, 3] was less than 0.1 nM and the EC50 [2] was less than 0.1 nM.

CNC(=O)N1CCN(c2ccc(C(=O)Nc3ccc(-c4ccc(-c5c[nH]c([C@@H]6CCCN6C(=O)[C@@H](NC(=O)OC)C(C)C)n5)cc4)c(OC(F)(F)F)c3)cn2)[C@H](C)C1 [Example 26] gave an EC50 [1, 3] of less than 0.1 nM and an EC50 [2] of less than 0.1 nM.

With COC(=O)N[C@H](C(=O)N1CCC[C@H]1c1nc(-c2ccc(-c3ccc(NC(=O)c4ccc(N5CCN(C(=O)[C@H]6CC6(C)C)C[C@@H]5C)nc4)cc3)cc2)c[nH]1)C(C)C [Example 13, [(S)-1-((S)-2-{4-[4′-({6-[(S)-4-((S)-2,2-Dimethyl-cyclopropane-carbonyl)-2-methyl-piperazin-1-yl]-pyridine-3-carbonyl}-amino)-biphenyl-4-yl]-1H-imidazol-2-yl}-pyrrolidine-1-carbonyl)-2-methyl-propyl]-carbamic acid methyl ester] the EC50 [1, 3] was less than 0.1 nM and the EC50 [2] was less than 0.1 nM.

CNC(=O)N1C[C@@H](C)N(c2ccc(C(=O)Nc3ccc(-c4ccc(-c5c[nH]c([C@@H]6CCCN6C(=O)[C@@H](NC(=O)OC)C(C)C)n5)cc4)c(OC(F)(F)F)c3)cn2)C[C@@H]1C [Example 29, ((S)-1-{(S)-2-[4-(4′-{[6-((2R,5S)-2,5-Dimethyl-4-methylcarbamoyl-piperazin-1-yl)-pyridine-3-carbonyl]-amino}-2′-trifluoromethoxy-biphenyl-4-yl)-1H-imidazol-2-yl]-pyrrolidine-1-carbonyl}-2-methyl-propyl)-carbamic acid methyl ester] showed an EC50 [1, 3] of less than 0.1 nM and an EC50 [2] of less than 0.1 nM.

CNC(=O)N1C[C@@H](C)N(c2ccc(C(=O)Nc3cc(C(F)(F)F)c(-c4ccc(-c5c[nH]c([C@@H]6CCCN6C(=O)[C@@H](NC(=O)OC)C(C)C)n5)cc4)cc3Cl)cn2)C[C@@H]1C [Example 64] gave an EC50 [1, 3] of less than 0.1 nM and an EC50 [2] of less than 0.1 nM.

In the case of COC(=O)N[C@H](C(=O)N1CCC[C@H]1c1nc(-c2ccc(-c3cc(F)c(NC(=O)c4ccc(N5CCN(C(=O)[C@]6(C)CCCN6C(=O)OC)C[C@H]5C)nc4)cc3OC(F)(F)F)cc2)c[nH]1)C(C)C [Example 27-42], the EC50 [1, 3] was less than 0.1 nM and the EC50 [2] was less than 0.1 nM.
